Series [1] can be described thus: DRUGMATRIX: Tumor Necrosis Factor (TNF), Non-Selective radioligand binding (ligand: [125I] TNF-alpha). Type of series: cell membranes, Membrane. To be noted: u-937; Not Active = under 50% inhibition at 10 µM.
For series [2], the target named is Epidermal growth factor receptor (Homo sapiens, UniProt P00533). Briefly: DRUGMATRIX: Protein Tyrosine Kinase, EGF Receptor enzyme inhibition (substrate: Poly(Glu:Tyr)). Format: cell-based, Insect cells. To be noted: Not Active = under 50% inhibition at 10 µM.
In another series the target is Cytochrome P450 2E1 (Homo sapiens, UniProt P05181). The settings on record: bti-tn-5b1-4. Also: in other assays of this panel Not Active means under 50% inhibition at 10 µM.
The nature of series [3]: DRUGMATRIX: Calcium Channel Type L, Benzothiazepine radioligand binding (ligand: [3H] Diltiazem). Type of series: cell membranes, Rattus norvegicus, Wistar, Brain, Membrane. To be noted: Not Active = under 50% inhibition at 10 µM.
Series [4] has as its target T1, Muscarinic acetylcholine receptor M5 (Homo sapiens, UniProt P08912). Also: in other assays of this panel Not Active means under 50% inhibition at 10 µM.
T1 sequence (P08912 whole entry): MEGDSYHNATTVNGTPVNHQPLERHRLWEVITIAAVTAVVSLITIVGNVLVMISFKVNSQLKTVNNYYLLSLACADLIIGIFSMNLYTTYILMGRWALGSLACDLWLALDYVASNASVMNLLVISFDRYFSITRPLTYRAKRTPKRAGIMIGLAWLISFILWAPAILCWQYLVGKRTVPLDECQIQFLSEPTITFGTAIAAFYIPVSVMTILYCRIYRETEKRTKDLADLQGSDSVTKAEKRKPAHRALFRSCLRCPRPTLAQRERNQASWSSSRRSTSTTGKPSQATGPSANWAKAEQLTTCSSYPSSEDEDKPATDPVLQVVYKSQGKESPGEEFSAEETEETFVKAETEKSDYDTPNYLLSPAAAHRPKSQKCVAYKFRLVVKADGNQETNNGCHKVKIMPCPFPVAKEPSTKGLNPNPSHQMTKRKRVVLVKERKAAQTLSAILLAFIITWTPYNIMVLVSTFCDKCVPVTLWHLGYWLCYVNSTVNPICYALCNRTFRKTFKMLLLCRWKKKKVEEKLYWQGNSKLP
Type of series: cell membranes, CHO-K1, Membrane.

In the next series the target is Acetylcholinesterase (Homo sapiens, UniProt P22303). Briefly: DRUGMATRIX: Acetylcholinesterase enzyme inhibition (substrate: acetylthiocholine). Format: cell-based, HEK293. To be noted: Not Active = under 50% inhibition at 10 µM.

By IC50 is commonly meant the concentration at which inhibition is half-maximal. By Ki is commonly meant a dissociation constant, usually derived from enzyme kinetics or from competition with a known ligand.

Each structure is given as a SMILES string.

Sequence of Acetylcholinesterase (P22303 whole entry): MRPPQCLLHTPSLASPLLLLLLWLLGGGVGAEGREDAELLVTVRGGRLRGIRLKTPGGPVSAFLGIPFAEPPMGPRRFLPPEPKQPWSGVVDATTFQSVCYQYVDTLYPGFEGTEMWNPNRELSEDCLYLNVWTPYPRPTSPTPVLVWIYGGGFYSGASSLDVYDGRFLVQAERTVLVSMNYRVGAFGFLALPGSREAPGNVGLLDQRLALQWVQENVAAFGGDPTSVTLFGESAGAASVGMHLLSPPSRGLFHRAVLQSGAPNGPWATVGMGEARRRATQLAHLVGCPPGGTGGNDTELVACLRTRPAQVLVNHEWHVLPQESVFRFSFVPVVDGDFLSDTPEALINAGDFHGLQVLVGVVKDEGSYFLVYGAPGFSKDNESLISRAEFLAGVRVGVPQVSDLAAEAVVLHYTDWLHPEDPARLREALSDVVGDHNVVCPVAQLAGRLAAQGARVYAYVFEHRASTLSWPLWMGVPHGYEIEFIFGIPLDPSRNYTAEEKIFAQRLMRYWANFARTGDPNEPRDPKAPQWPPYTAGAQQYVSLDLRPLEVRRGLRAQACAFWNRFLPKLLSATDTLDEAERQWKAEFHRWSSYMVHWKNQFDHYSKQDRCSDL
Sequence of Epidermal growth factor receptor (P00533 whole entry): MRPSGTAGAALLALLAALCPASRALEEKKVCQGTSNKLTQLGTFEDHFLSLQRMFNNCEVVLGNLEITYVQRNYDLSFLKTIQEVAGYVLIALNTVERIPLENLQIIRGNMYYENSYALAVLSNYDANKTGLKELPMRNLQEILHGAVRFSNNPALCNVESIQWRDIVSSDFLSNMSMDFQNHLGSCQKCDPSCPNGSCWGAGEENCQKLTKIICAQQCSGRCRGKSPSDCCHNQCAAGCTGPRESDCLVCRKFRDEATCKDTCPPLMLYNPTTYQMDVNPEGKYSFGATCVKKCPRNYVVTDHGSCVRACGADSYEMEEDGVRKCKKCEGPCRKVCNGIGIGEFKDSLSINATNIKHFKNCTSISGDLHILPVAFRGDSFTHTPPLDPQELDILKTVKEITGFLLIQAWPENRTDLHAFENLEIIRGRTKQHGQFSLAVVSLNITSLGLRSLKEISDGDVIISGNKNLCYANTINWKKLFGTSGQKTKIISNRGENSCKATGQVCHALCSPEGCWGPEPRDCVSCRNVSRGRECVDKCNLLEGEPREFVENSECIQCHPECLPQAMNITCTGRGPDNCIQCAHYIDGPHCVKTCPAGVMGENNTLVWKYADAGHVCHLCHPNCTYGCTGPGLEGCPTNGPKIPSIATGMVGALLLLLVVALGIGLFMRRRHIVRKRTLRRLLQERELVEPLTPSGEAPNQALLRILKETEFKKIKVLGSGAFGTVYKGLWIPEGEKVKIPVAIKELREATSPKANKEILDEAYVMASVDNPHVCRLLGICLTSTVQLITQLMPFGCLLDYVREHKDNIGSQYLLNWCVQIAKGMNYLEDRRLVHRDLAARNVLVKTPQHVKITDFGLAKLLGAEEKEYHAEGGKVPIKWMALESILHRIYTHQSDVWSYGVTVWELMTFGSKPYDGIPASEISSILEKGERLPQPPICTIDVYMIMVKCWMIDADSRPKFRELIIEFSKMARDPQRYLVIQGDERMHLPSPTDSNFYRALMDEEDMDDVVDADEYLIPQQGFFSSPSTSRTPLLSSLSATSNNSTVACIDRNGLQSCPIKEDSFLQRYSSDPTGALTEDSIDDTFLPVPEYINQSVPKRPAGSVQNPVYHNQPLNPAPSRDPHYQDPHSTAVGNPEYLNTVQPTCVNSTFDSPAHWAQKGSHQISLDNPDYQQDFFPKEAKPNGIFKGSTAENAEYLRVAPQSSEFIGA
Sequence of Cytochrome P450 2E1 (P05181 whole entry): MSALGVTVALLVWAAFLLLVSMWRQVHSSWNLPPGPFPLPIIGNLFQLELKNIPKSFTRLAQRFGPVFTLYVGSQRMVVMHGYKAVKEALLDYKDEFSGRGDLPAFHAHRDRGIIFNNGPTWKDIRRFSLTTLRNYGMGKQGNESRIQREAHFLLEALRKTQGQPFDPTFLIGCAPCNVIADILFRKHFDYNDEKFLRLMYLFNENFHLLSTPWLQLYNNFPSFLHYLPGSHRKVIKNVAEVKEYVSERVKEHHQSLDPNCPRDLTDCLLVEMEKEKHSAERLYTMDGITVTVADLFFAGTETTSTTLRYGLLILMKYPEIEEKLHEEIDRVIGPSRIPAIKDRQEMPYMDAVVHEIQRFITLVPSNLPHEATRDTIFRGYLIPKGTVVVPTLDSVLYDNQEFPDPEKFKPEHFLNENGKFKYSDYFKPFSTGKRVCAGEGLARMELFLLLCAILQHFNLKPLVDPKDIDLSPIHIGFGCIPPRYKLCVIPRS

As for `CCN1CC(CCN2CCOCC2)C(c2ccccc2)(c2ccccc2)C1=O` (stereo not given) [DOXAPRAM], the concentration for half-maximal inhibition (IC50) entry (in series [1]; in series [2] (insect cells); against Cytochrome P450 2E1; in series [3]; in series [4] (cho-k1); at Acetylcholinesterase (hek293)) was “Not Active” in each case. Moreover, the Ki result (in series [1]; at Cytochrome P450 2E1; in series [3]) was “Not Active” in each case.
For the compound `Cn1c(=O)c2c(ncn2CC2OCCO2)n(C)c1=O` [DOXOFYLLINE], the IC50 result (in series [1]; in series [2] (insect cells); against Cytochrome P450 2E1; in series [3]; in series [4] (cho-k1); at Acetylcholinesterase (hek293)) was “Not Active” each time. Moreover, the inhibitory constant (Ki) entry (in series [1]; on Cytochrome P450 2E1; in series [3]) was “Not Active” throughout.
For `COc1cccc2c1C(=O)c1c(O)c3c(c(O)c1C2=O)C[C@@](O)(C(=O)CO)C[C@@H]3O[C@H]1C[C@H](N)[C@H](O)[C@H](C)O1` [DOXORUBICIN], the half-inhibitory concentration (IC50) result (in series [1]; in series [2] (insect cells); at Cytochrome P450 2E1; in series [3]; in series [4] (cho-k1); at Acetylcholinesterase (hek293)) was “Not Active” each time. For the same compound, the Ki entry (in series [1]; at Cytochrome P450 2E1; in series [3]) was “Not Active” in each case.
In the case of `COc1cccc2c1C(=O)c1c(O)c3c(c(O)c1C2=O)C[C@@](O)(C(=O)CO)C[C@@H]3O[C@H]1C[C@H](N)[C@@H](O)[C@H](C)O1` [EPIRUBICIN], the IC50 entry (in series [1]; in series [2] (insect cells); against Cytochrome P450 2E1; in series [3]; in series [4] (cho-k1); against Acetylcholinesterase (hek293)) was “Not Active” each time. In addition, the Ki result (in series [1]; on Cytochrome P450 2E1; in series [3]) was “Not Active” throughout.
Consider `C[C@]12CC[C@@H]3c4ccc(OC(=O)c5ccccc5)cc4CC[C@H]3[C@@H]1CC[C@@H]2O` [ESTRADIOL BENZOATE], for which the IC50 result (in series [1]; in series [2] (insect cells); against Cytochrome P450 2E1; in series [3]; in series [4] (cho-k1); at Acetylcholinesterase (hek293)) was “Not Active” throughout. Moreover, the inhibition constant Ki entry (in series [1]; at Cytochrome P450 2E1; in series [3]) was “Not Active” each time.
Turning to `C[C@]12CC[C@@H]3c4ccc(O)cc4CC[C@H]3[C@@H]1CC[C@@H]2O` [ESTRADIOL], the IC50 entry (in series [1]; in series [2] (insect cells); against Cytochrome P450 2E1; in series [3]; in series [4] (cho-k1); against Acetylcholinesterase (hek293)) was “Not Active” in each case. Also, the Ki result (in series [1]; at Cytochrome P450 2E1; in series [3]) was “Not Active” throughout.
Turning to `CC[C@@H](CO)NCCN[C@@H](CC)CO` [ETHAMBUTOL], the IC50 result (in series [1]; in series [2] (insect cells); on Cytochrome P450 2E1; in series [3]; in series [4] (cho-k1); against Acetylcholinesterase (hek293)) was “Not Active” each time. In addition, the Ki result (in series [1]; on Cytochrome P450 2E1; in series [3]) was “Not Active” in each case.
Turning to `CC1(C)O[C@@H]2C[C@H]3[C@@H]4C[C@H](F)C5=CC(=O)C=C[C@]5(C)[C@H]4[C@@H](O)C[C@]3(C)[C@]2(C(=O)CO)O1` [FLUNISOLIDE], the 50% inhibitory concentration (IC50) entry (in series [1]; in series [2] (insect cells); against Cytochrome P450 2E1; in series [3]; in series [4] (cho-k1); on Acetylcholinesterase (hek293)) was “Not Active” throughout. Moreover, the Ki entry (in series [1]; on Cytochrome P450 2E1; in series [3]) was “Not Active” throughout.
In the case of `CC1(C)O[C@@H]2C[C@H]3[C@@H]4C[C@H](F)C5=CC(=O)C=C[C@]5(C)[C@@]4(F)[C@@H](O)C[C@]3(C)[C@]2(C(=O)CO)O1` [FLUOCINOLONE ACETONIDE], the IC50 entry (in series [1]; in series [2] (insect cells); against Cytochrome P450 2E1; in series [3]; in series [4] (cho-k1); against Acetylcholinesterase (hek293)) was “Not Active” each time. For the same compound, the Ki result (in series [1]; at Cytochrome P450 2E1; in series [3]) was “Not Active” in each case.
Consider `CC1(C)O[C@@H]2C[C@H]3[C@@H]4C[C@H](F)C5=CC(=O)CC[C@]5(C)[C@H]4[C@@H](O)C[C@]3(C)[C@]2(C(=O)CO)O1` [FLURANDRENOLIDE], for which the IC50 result (in series [1]; in series [2] (insect cells); at Cytochrome P450 2E1; in series [3]; in series [4] (cho-k1); on Acetylcholinesterase (hek293)) was “Not Active” in each case. The inhibitory constant (Ki) result (in series [1]; on Cytochrome P450 2E1; in series [3]) was “Not Active” in each case.
Regarding `CN(C)c1ccc(C(=C2C=CC(=[N+](C)C)C=C2)c2ccc(N(C)C)cc2)cc1.[Cl-]` [GENTIAN VIOLET], the IC50 entry in series [1] is “Not Active”; in series [2] (read-out: IC50), 0.473 µM; against Cytochrome P450 2E1, “Not Active”; in series [3], “Not Active”; in series [4] (read-out: IC50), 0.535 µM; at Acetylcholinesterase (read-out: IC50), 5.85 µM. The Ki entry in series [1] was “Not Active”; on Cytochrome P450 2E1, “Not Active”; in series [3] it was “Not Active”; in series [4] (read-out: Ki), 0.384 µM.
Take `Cc1ccc(S(=O)(=O)NC(=O)NN2CC3CCCC3C2)cc1` (stereo not given) [GLICLAZIDE]: the IC50 entry (in series [1]; in series [2] (insect cells); at Cytochrome P450 2E1; in series [3]; in series [4] (cho-k1); at Acetylcholinesterase (hek293)) was “Not Active” throughout. In addition, the Ki entry (in series [1]; at Cytochrome P450 2E1; in series [3]) was “Not Active” each time.
In the case of `CC(C)Cc1ccc(C(C)C(=O)O)cc1` (stereo not given) [IBUPROFEN], the concentration for half-maximal inhibition (IC50) result (in series [1]; in series [2] (insect cells); against Cytochrome P450 2E1; in series [3]; in series [4] (cho-k1); against Acetylcholinesterase (hek293)) was “Not Active” each time. The Ki result (in series [1]; at Cytochrome P450 2E1; in series [3]) was “Not Active” each time.
`COc1ccc2c(c1)c(CC(=O)O)c(C)n2C(=O)c1ccc(Cl)cc1` [INDOMETHACIN]: the half-maximal inhibitory concentration (IC50) result (in series [1]; in series [2] (insect cells); at Cytochrome P450 2E1; in series [3]; in series [4] (cho-k1); on Acetylcholinesterase (hek293)) was “Not Active” each time. The inhibition constant (Ki) result (in series [1]; on Cytochrome P450 2E1; in series [3]) was “Not Active” in each case.
`CC(C(=O)O)c1cccc(C(=O)c2ccccc2)c1` (stereo not given) [KETOPROFEN]: the half-inhibitory concentration (IC50) result (in series [1]; in series [2] (insect cells); on Cytochrome P450 2E1; in series [3]; in series [4] (cho-k1); on Acetylcholinesterase (hek293)) was “Not Active” throughout. The inhibition constant (Ki) entry (in series [1]; at Cytochrome P450 2E1; in series [3]) was “Not Active” throughout.
As to `Nc1ccn([C@@H]2CS[C@H](CO)O2)c(=O)n1` [LAMIVUDINE], the half-inhibitory concentration (IC50) entry (in series [1]; in series [2] (insect cells); against Cytochrome P450 2E1; in series [3]; in series [4] (cho-k1); against Acetylcholinesterase (hek293)) was “Not Active” each time. Besides, the inhibition constant (Ki) result (in series [1]; on Cytochrome P450 2E1; in series [3]) was “Not Active” throughout.
